# Reference: patent US4221794A, “Method of imparting immunomodulating and antiviral activity” (Newport Pharmaceuticals International, Inc., priority 1979, dated 1980)
# Key:
# Herpes virus = assay: Anti-herpes activity, plaque assay (Table 3); type: cell-based, herpes hominis type 2 (Vero cells); details: for Plaques (PFU) Percent Inhibition: Test 15-150 μg/ml; for reduce plaque formation caused by Herpes Simplex virus: concentrations less than 100 μg/ml
# Excerpt: Anti-Herpes Activity--(Plaque Assay)
# The infection of tissue culture cells by Herpes virus causes cell lysis. After a period of time these lysed cells are visualized as a tiny clear area (plaque) on a layer of cells. The incorporation of a test substance into the media will reduce the number of plaques if it is capable of preventing virus replication. The method is as follows:
# There was employed herpes hominis type 2 purchased from American Type Culture Collection (ATCC), Bethesda, Maryland, ATCC #VR 540, Lot 3D. The lyophilized viral suspension was reconstituted with 1 ml sterile distilled H2 O. The virus was passed twice through HeLa-cell monolayers. The tissue-culture supernates were pooled, dispensed in 1-ml aliquots, and stored at -70° C.
# Vero cells in log-growth phase were subcultured at a concentration of 1×10^5 cells/ml in 50-ml Falcon flasks in Eagle's Minimum Essential Medium (MEM), supplemented with 10% fetal calf serum (FCS) and antibiotics. Media were changed the day following planting. The Vero monolayers reached confluence by the second day after planting and with the cells in log phase, the cultures were used for the plaque assay.
# Culture media were poured off and the monolayers were wahsed once with phosphate-buffered saline (PBS). Several different dilutions of the working-stock virus suspension were prepared and each culture flask was infected with 0.5 ml of one of the virus dilutions added to FCS-free medium. […] Controls were prepared with medium devoid of drug.
# Virus adsorption was allowed to proceed for 2 hours at 37° C., during which time the cultures were rocked gently every 15 minutes. Then Media were poured off and the monolayers were washed once with 10 ml PBS.
# Agarose was prepared at a concentration of 6% w/v in 50 ml PBS. A stock medium of MEM supplemented with 2% FCS was prepared. Drug was added to some of the stock medium at 150 μg/ml. The three solutions were maintained at 47° C. In addition, a 1:10 dilution of pooled human anti-herpes sera was readied. Just before the start of treatment, 15 ml of the agarose solution were added to 85 ml of medium. Another 15 ml of agarose were added to 85 ml of drug-medium.
# Each of the washed monolayers in one group of experiments was treated either with 5 ml of agarose-medium or with 5 ml of agarose-drug-medium. In another group of experiments, each monolayer was treated either with 0.2 ml of anti-herpes sera in 5 ml of stock medium, or with 0.2 ml of anti-herpes sera in 5 ml of drug-medium. The anti-herpes sera were used in place of agarose to localize plaques by neutralizing any free virus in the medium. The flasks were allowed to remain at room temperature for 5 minutes, after which they were incubated at 37° C. for 2 days. Triplicate cultures were used for most treatment groups.
# Ten ml of PBS then were added to each flask. Overlays were shaken gently and then were poured out of the flasks. The monolayers were stained with a solution 0.5% w/v crystal violet in 50% methanol in triple-distilled H2 O.
# Plaques were counted either directly by transmitted fluorescent light and macroviewing, or by the use of light microscopy for microplaques. Microplaques were counted by averaging three fields per experimental group under 150×magnification.
# [1] = test system: human peripheral blood lymphocytes; assay: Mitogen (PHA) induced human lymphocyte proliferation; type: cell-based; details: plus = immunostimulating, minus = immunoinhibiting, 0 = neither
# guinea pig macrophages = assay: Lymphokine (MMF) induced guinea pig macrophage proliferation; type: cell-based; details: plus = immunostimulating, minus = immunoinhibiting, 0 = neither
# Procedure: 3. The macrophage represents a subpopulation of white blood cells which is an important component of the immune system in control of both cellular and humoral immunity. The assay system described below evaluates the substances studied as potentiators of macrophage function.
# Phytohemagglutinin (PHA) (HA-17) was purchased from Burroughs Wellcome. A preparation containing Macrophage Mitogen Factor (MMF) and Macrophage Activating Factor (MAF) was prepared from antigen-stimulated immune lymph node lymphocytes (guinea pig) as previously described by Hadden et al, Nature 257, 483-485 (1975). […] The active fraction was employed in both the proliferation and activation assays.
# Ficoll-hypaque purified human peripheral blood lymphocytes were prepared and PHA-induced lymphocyte proliferation was assayed by the incorporation of tritiated thymidine as described in Hadden et al., Cell. Immunol. 20, 98-103 (1975). Each compound was analyzed in the presence of suboptimal, optimal and supraoptimal concentrations of PHA (0.001, 0.01, 0.1 units/ml respectively). Paraffin oil-induced guinea pig peritoneal macrophages were prepared and incubated as monolayer culture (>98% pure macrophages). Lymphokine (MMF)-induced proliferation was assayed by the incorporation of tritiated thymidine at 3 and 5 days of culture as described, Hadden et al, Nature 257, 483-485 (1975). Lymphokine (MAF)-induced macrophage activation to kill Listeria monocytogenes following 5 days of culture in the presence or absence of MAF was performed during a 6 hour period as described in Hadden and England, Immunopharmacology, pages 87-100 (Plenum Press, 1977). Phagocytosis was quantitated during a 20-minute exposure to Listeria monocytogenes by counting the number of macrophages containing bacteria and the number of bacteria per phagocytic cell on gram stained monolayers in Labtek chambers. Intracellular killing of bacteria was evaluated by counting the number of cells containing bacteria and the number of bacteria/cell 6 hours after the initial 20 minute exposure. Parallel experiments in which macrophages were lysed and intracellular bacteria were cultured confirm the validity of bacterial activity determined by this manner in this system. The drugs were employed in each of the three systems over serial log concentration range in triplicate in the presence and absence of mitogen or lymphokine. Each type of experiment was performed at least three times. Previous experiments indicate a parallelism of response to pharmacologic modulation in the proliferation and achivation assays.
# (§1) Table 4 above presents the results of an evaluation of a number of these subject compounds as potentiators of the immune response. Three different test systems were used. The first involves a measure of the ability of the test compound to enhance the ability of mouse lymphocytes to proliferate in response to a plant mitogen (Con A). The second involves measuring the ability of the test compounds to enhance human lymphocyte proliferation in response to a second plant mitogen (PHA). The third system measures the ability of these test substances to enhance macrophage proliferation in response to a natural lymphokine (MMF, Macrophage Mitogenic Factor).
# immune response = assay: Immunomodulating activity (overall); type: cell-based
# Excerpt: The following three assay procedures are used to evaluate the ability of the test substances to modulate the activity of several classes of cells in the immune system. In these systems it is possible to identify both immunopotentiating activity (evidence by an enhancement of the parameter examined) as well as immunosuppressant activity (evidenced by an inhibition of the parameter examined).
# as §1
Structure (SMILES),inhibition of replication of Herpes Simplex virus (in words) (Herpes virus),Plaques (PFU) Percent Inhibition (Herpes virus),reduce plaque formation caused by Herpes Simplex virus (Herpes virus),"Maximum Percent Change, Mitogen Induced (PHA) Human Lymph. Prolif. ([1]; 1.0-10 (unit not given))","Maximum Percent Change, Mitogen Induced (PHA) Human Lymph. Prolif. ([1]; 10-100 (unit not given))","Maximum Percent Change, Mitogen Induced (PHA) Human Lymph. Prolif. ([1]; .01-1.0 (unit not given))","Maximum Percent Change, Lymphokine Induced (MMF) Guinea Pig Mac. Prolif. (guinea pig macrophages; 1.0-10 (unit not given))","Maximum Percent Change, Lymphokine Induced (MMF) Guinea Pig Mac. Prolif. (guinea pig macrophages; .01-1.0 (unit not given))",potentiation of the immune response (in words) (immune response),Potentiation of immunopotentiation by DIP.PAcBA salt (immune response; salt compared with parent compound)
"CCCCCC[C@H]([C@H](C)O)n1cnc2c(=O)[nH]cnc21 (relative stereo) [NPT 15392, ERYTHRO-9-(2-HYDROXY-3-NONYL)HYPOXANTHINE]",shown to inhibit the replication of Herpes Simplex virus,98%,> 90%,20%,-50%,11-15%,23%,33%,potentiation of the immune response has been observed,
CCCCCC[C@H]([C@H](C)O)n1cnc2c(=O)[nH]cnc21 (relative stereo) [NPT 15410],shown to inhibit the replication of Herpes Simplex virus,98%,> 90%,60%,,,23%,12%,potentiation of the immune response has been observed,Yes
